Source: publication PMC7217877, “N-AS-triggered SPMs are direct regulators of microglia in a model of Alzheimer’s disease” (Nature Communications, 2020)
“And” between values parts separate entries of the source, which are not always exact repeats. Identical values can stand only once.

Experiments:
COX2 WT = molecular target: T1, COX2 WT (Homo sapiens, UniProt P35354); experiment: in vitro [14C] acetylation assay of purified COX2; type: biochemical; design: C14 radioactivity of COX2, acetylation assay (Fig 1h): unit not given here
T1 construct: His (N); made in house
T1 sequence (P35354 18-604): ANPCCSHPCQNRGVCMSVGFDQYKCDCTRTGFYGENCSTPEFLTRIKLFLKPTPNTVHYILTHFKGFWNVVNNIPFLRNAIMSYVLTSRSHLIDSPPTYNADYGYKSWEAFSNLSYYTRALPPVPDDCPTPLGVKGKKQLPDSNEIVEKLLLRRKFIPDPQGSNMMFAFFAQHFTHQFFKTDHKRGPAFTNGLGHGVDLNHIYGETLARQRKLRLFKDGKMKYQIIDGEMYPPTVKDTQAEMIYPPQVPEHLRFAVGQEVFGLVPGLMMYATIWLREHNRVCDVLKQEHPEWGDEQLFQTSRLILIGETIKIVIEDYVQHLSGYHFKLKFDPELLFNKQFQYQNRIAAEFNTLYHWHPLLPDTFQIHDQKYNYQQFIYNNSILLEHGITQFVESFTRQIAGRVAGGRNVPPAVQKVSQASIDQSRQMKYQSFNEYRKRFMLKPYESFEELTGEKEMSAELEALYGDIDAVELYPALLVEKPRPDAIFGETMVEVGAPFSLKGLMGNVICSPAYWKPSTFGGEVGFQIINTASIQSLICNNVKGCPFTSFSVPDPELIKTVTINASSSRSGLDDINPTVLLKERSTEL
Experimental: Acetylation assays were performed according to previously described procedures with minor modifications. […] To confirm the N-AS-mediated COX2 acetylation, 10 μg COX2 (WT or mutants) was used incubated with [^14C] N-AS (2 μCi, ARC UK Ltd, ARC-1024) at 37 °C for 2 h. [^14C] aspirin (2 μCi, ARC UK Ltd, ARC-0473) was conducted as the positive control. The reactions were terminated by placing the reaction tubes in ice for 5 min. To evaluate in vivo neuronal and microglial COX2 acetylation, 10 μCi [^14C] N-AS was orally administrated to 9-months-old WT and APP/PS1 mice. After 1 h, neuron and microglia were isolated and sonicated in culture media. To immunoprecipitate acetylated COX2, the sample was incubated with COX2 antibody (Abcam, ab15191) at 4 °C for 24 h and precipitated by adding 50 μl of protein-A sepharose (GE Healthcare). Acetylated COX2 proteins bound to the beads were analyzed using a Tri-Carb 3110TR liquid scintillation counter (Perkin-Elmer).

microglia = experiment: immunofluorescence of ac-S565 and COX2 in primary cells; type: cell-based, C57BL/6 mice; details: Ab 10mM, replicates
Experimental: To confirm the generation and roles of N-AS in neurons, cells from E18 C57BL/6 mice were prepared as previously described. Cortices were dissected and then dissociated followed by incubation in papain (Worthington) at 37 °C for 15 min. Neurons were plated on poly-L-lysine-coated coverslips with neuronal culture medium, serum-free Neurobasal medium (Gibco) containing 2% B27 supplements (Gibco), 1 mM Glutamax supplement (Gibco), and 100 U ml^−1 streptomycin/ 100 U ml^−1 penicillin (Gibco) at 37 °C in a humidified atmosphere of 5% CO2. Aβ 1–42 (10 μM, 24 h, Invitrogen, 03112) was exposed to neurons and the cells were analyzed for the generation and roles of N-AS. Primary astrocyte cultures were prepared from C57BL/6 mice as described previously. […] The human microglia treated with Aβ 1–42 and/or zileuton was incubated with N-AS (2.5 μM, 2 h, Sigma-Aldrich, 01912), and were analyzed for the generation and roles of N-AS.
Thioflavin S (Sigma-Aldrich) staining was carried out according to previously described procedures. […] The sections were analyzed with a laser-scanning confocal microscope (FV3000; Olympus) or with a BX51 microscope (Olympus). MetaMorph software (Molecular Devices) was used to quantification. Three-dimensional reconstruction of microglia was recorded and analyzed using IMARIS software (Bitplane)[11]. […]

| COX2 acetylation level, in words (COX2 WT; [14C] N-AS vs aspirin or SphK1-mediated acetylation) | Compound | C14 radioactivity of COX2, acetylation assay (Fig 1h) (COX2 WT; COX2 WT, replicates, listed as C14 N-AS) | ac-S565 with COX2, immunofluorescence quantification (Fig 3c) (microglia) |
| --- | --- | --- | --- |
| higher-level acetylation | CCCCCCCCCCCCC/C=C/[C@@H](O)[C@H](CO)NC(C)=O [N-AS, N-((2S,3R,E)-1,3-Dihydroxyoctadec-4-en-2-yl)acetamide] | 278534 and 277829 and 277497 and 262864 and 273318 and 276027 |  |
|  | Ab: Aβ 1–42 (Invitrogen, 03112) used to induce an AD environment in cells |  | 0.1091 and 0.1473 and 0.02354 and 0.07315 and 0.06621 and 0.05168 |
